Assay: Octenidine extractable from impregnated hydrophilic polyurethane foam, no surfactant
Type: physicochemical
Settings: for Release % water: 24 h extraction in water, UV 285 nm
Description: Discs of hydrophilic polyurethane foam were impregnated by applying a known volume of octenidine-containing solution to the surface of the foam and letting it soak into the foam matrix in a liquid:foam ratio which allowed the foam to be saturated with liquid. Afterwards, the impregnated foam was dried at RT overnight.
The dried foam disc was immersed in the extraction media for 24 h and the extracted octenidine concentration was determined by UV at 285 nm

Q: With `CCCCCCCCN=c1ccn(CCCCCCCCCCn2ccc(=NCCCCCCCC)cc2)cc1` [Octenidine, octenidine] as the compound, how does the “Release % phosphate buffer (23 mM)” value (plain foam impregnated with 0.1 w % OCT solution, 24 h extraction) read?
A: The value was 7%.

Q: What about the Release % water (plain foam impregnated with 0.1 w % OCT solution) of the same compound?
A: The Release % water was 5%.

Q: What about the Release % water (plain foam impregnated with 0.5 w % OCT solution) of the same compound?
A: The Release % water was 1.5%.

Q: And the Release % water (plain foam impregnated with 1.0 w % OCT solution)?
A: Its Release % water is 1.5%.

— patent US20210113733A1, “FIBROUS WOUND DRESSING COMPRISING AN ANTISEPTIC” (Coloplast A/S, priority 2018, published 2021)
